According to article PMC12736293, “Design of Artificial Peptide Against HIV-1 Based on the Heptad-Repeat Rules and Membrane-Anchor Strategies” (Pharmaceuticals, 2025):
Where two headings read alike, the source gives them in different places. Square brackets hold non-standard residues; d marks the D form. Peptide text beside a SMILES is read from it. * marks the point of attachment. X1 = CC(C)CCC[C@@H](C)[C@H]1CC[C@H]2[C@@H]3CC=C4C[C@@H](OC(=O)C*)CC[C@]4(C)[C@H]3CC[C@]12C; Palmitoyl = CCCCCCCCCCCCCCCC(=O)*; βAla = NCCC(=O)O

Experiments:
[1] = test system: HIV-1 Env-mediated cell–cell fusion (H9/HIV-1 IIIB cells and MT-2 cells); assay type: cell-based; settings: for IC50: Calcein AM-labelled H9/HIV-1 IIIB cells, peptide 30 min at 37 °C, then MT-2 cells 2 h, fused cells counted by fluorescence microscopy, triplicate, mean ± SD, read-out: IC50, inhibitory activity on HIV-1 Env-mediated cell–cell fusion
Protocol: 4.2. HIV-1 Env-Mediated Cell–Cell Fusion Assay
Briefly, the fluorescent reagent Calcein AM (abcam, Shanghai, China) was used to label H9/HIV-1 IIIB cells (obtained from the Inner Mongolia Autonomous Region New Drug Screening Engineering Research Center in Inner Mongolia Medical University, Hohhot, China). First, 2.5 μL of Calcein AM was used to stain 2 × 10^5 H9/HIV-1 IIIB cells. After labeling at 37 °C for 30 min, the cells were washed twice with PBS (Thermo Fisher Scientific, Waltham, MA, USA) and resuspended in fresh RPMI 1640 (Sigma-Aldrich, St. Louis, MO, USA) medium supplemented with 10% FBS. Next, 50 μL of diluted peptides and 50 μL of a mixture containing 2 × 10^5 H9/HIV-1 IIIB cells/mL were added to a 96-well cell culture plate and incubated at 37 °C for 30 min. Subsequently, 1 × 10^5 MT-2 cells were added to the mixture and cultured at 37 °C for 2 h. The fused cells were quantified using an inverted fluorescence microscope. The IC50 values were calculated using CalcuSyn software (Version 2.0).

[2] = test system: HIV-1 pseudovirus derived from the JFRL macrophagic strain (subtype B) on U87 CD4+ CCR5+ cells; assay type: cell-based; settings: luciferase read-out 48 h post-infection
Protocol: 4.3. Neutralization Assay of HIV-1 Pseudovirus
Briefly, U87 CD4^+ CCR5^+ cells (obtained from the Inner Mongolia Autonomous Region New Drug Screening Engineering Research Center in Inner Mongolia Medical University, Hohhot, China) (1 × 10^4 cells/well) were plated in 96-well tissue culture plates and incubated at 37 °C in a humidified 5% CO2 atmosphere for 12 h to allow cell adherence. Serial dilutions of the test peptides were prepared, and each dilution was mixed with the HIV-1 pseudovirus derived from the JFRL macrophagic strain (subtype B). After incubating the virus-peptide mixtures at 37 °C for 30 min to allow interaction, the mixtures were transferred to the pre-seeded U87 CD4^+ CCR5^+ cells. At 12 h post-infection, the culture medium was refreshed to remove unbound viruses and excess peptides. Forty-eight hours post-infection, the cells were lysed using Cell Culture Lysis Reagent (Promega, Madison, WI, USA), and the luminescence intensity (reflecting luciferase activity) was quantified using the Luciferase Assay System (Promega, E4030) according to the manufacturer’s instructions.

in vitro = settings: liver microsomes
Protocol: Phase I Metabolic Stability Assay
(§1) Experiments were carried out using the Phase I Metabolic Stability Research Kit (IPHASE, Suzhou, China). Solution A in the kit was pre-incubated at 37 °C for 5 min, and solution B was prepared from PBS (100 mM), the subject (or positive substrate), and liver microsomes. The above two were mixed and immediately placed in a 37 °C water bath for incubation. The incubation solution is quantitatively removed from the incubation system at preset time points (0, 5, 10, 15, 30, 60 min), and an equal volume of termination solution is added. Each sample was run in parallel three times. The substrate remaining amount at each time point was determined by RP-HPLC (Shimadzu preparative HPLC system, Shimadzu Corporation, Kyoto, Japan), the substrate remaining percentage was calculated, and the slope k was determined by linear regression analysis to calculate the Elimination half-life and Hepatic microsomal intrinsic clearance.

[3] = biological target: T1, N36/C34 six-helix bundle (6-HB) (Human immunodeficiency virus type 1 group M subtype B, UniProt P04578); experiment: SE-HPLC analysis of 6-HB formation between N36 and C34; assay type: biochemical, HIV-1; settings: gradual addition of peptide to the C34/N36 mixture; PBS pH 7.4, BioSep-SEC-S2000, 210 nm
T1 construct: corresponding to the NHR region of gp41 (residues 546–581); made in house; host or cells: chemical synthesis (Fmoc solid-phase)
T1 sequence (P04578 546-581): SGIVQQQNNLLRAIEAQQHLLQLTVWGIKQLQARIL

[4] = biological target: T1, N36/C34 six-helix bundle (6-HB); experiment: N-PAGE detection of blocking of 6-HB formation between C34 and N36; assay type: biochemical, HIV-1; settings: N36 (20 μM) with rising peptide concentration, 37 °C 30 min, then C34 (20 μM) 30 min
Protocol: Figure 5 (A) N-PAGE to detect the blocking of 6-HB formation between C34 and N36 by EK35S peptide. N36 (20 μM) with or without EK35S was incubated at 37 °C for 30 min, followed by the addition of C34 (20 μM). The mixture was incubated at 37 °C for another 30 min before loading into the gel; (B) N-PAGE to detect the blocking of 6-HB formation between C34 and N36 by EK35S-Plam peptide. N36 (20 μM) with or without EK35S-Plam was incubated at 37 °C for 30 min, followed by the addition of C34 (20 μM). The mixture was incubated at 37 °C for another 30 min before loading into the gel.
4.6. Methods for Native Polyacrylamide Gel Electrophoresis (N-PAGE)
Peptides, as well as their equimolar mixtures, were prepared at a final concentration of 100 μM in PBS (10 mM, pH 7.4) and incubated at 37 °C for 30 min. After incubation, the peptide solutions were mixed with methyl green loading buffer in a 1:1 ratio, and 20 μL of each sample was loaded into the wells of the gel. Gel electrophoresis was performed at room temperature, initially at a constant voltage of 90 V for 0.5 h, followed by 150 V for 2–3 h. The gels were then stained with Coomassie Brilliant Blue G250 (Bio-Rad, Shanghai, China), and images were captured using the ChampGel 6000 Imaging System (Sage Creation Ltd., Beijing, China).

[5] = liver microsomes
Protocol: Phase I Metabolic Stability Assay
as §1

Molecule | IC50 [1] [µM] | IC50 [2] [µM] | further results
Ac-IEELIKKIEELIKKIEELIKKIEELIKKIEELIKK-NH2 [EK35] | > 100 | 119 ± 1.39 | 
enfuvirtide |  |  | half-life (in vitro): 151 min
Ac-IEELMKKIEELMKKIEELMKKIEELMKKIEELMKK-NH2 [EK35M] | 15.8 ± 8.92 | 25.3 ± 0.85 | 
Ac-IEELYKKIEELYKKIEELYKKIEELYKKIEELYKK-NH2 [EK35Y] | 23.2 ± 6.72 | 15.2 ± 0.65 | 
Ac-IEELFKKIEELFKKIEELFKKIEELFKKIEELFKK-NH2 [EK35F] | 92.4 ± 9.22 | 110 ± 2.37 | 
IEELSKK IEELSKK IEELSKK IEELSKK IEELSKK-OApc [EK35S-OApc, EK35S conjugated with protected oleanolic acid derivative OApc via click chemistry] | 4.82 ± 0.89 | 1.88 ± 0.14 | 
Enfuvirtide | 0.008 ± 0.002 | 0.00824 ± 0.00087 | 
CCCCCCCCCCCCCCCC(=O)NCCCC[C@H](NC(=O)CCNC(=O)[C@H](CCCCN)NC(=O)[C@H](CCCCN)NC(=O)[C@H](CO)NC(=O)[C@H](CC(C)C)NC(=O)[C@H](CCC(=O)O)NC(=O)[C@H](CCC(=O)O)NC(=O)[C@@H](NC(=O)[C@H](CCCCN)NC(=O)[C@H](CCCCN)NC(=O)[C@H](CO)NC(=O)[C@H](CC(C)C)NC(=O)[C@H](CCC(=O)O)NC(=O)[C@H](CCC(=O)O)NC(=O)[C@@H](NC(=O)[C@H](CCCCN)NC(=O)[C@H](CCCCN)NC(=O)[C@H](CO)NC(=O)[C@H](CC(C)C)NC(=O)[C@H](CCC(=O)O)NC(=O)[C@H](CCC(=O)O)NC(=O)[C@@H](NC(=O)[C@H](CCCCN)NC(=O)[C@H](CCCCN)NC(=O)[C@H](CO)NC(=O)[C@H](CC(C)C)NC(=O)[C@H](CCC(=O)O)NC(=O)[C@H](CCC(=O)O)NC(=O)[C@@H](NC(=O)[C@H](CCCCN)NC(=O)[C@H](CCCCN)NC(=O)[C@H](CO)NC(=O)[C@H](CC(C)C)NC(=O)[C@H](CCC(=O)O)NC(=O)[C@H](CCC(=O)O)NC(=O)[C@@H](NC(C)=O)[C@@H](C)CC)[C@@H](C)CC)[C@@H](C)CC)[C@@H](C)CC)[C@@H](C)CC)C(N)=O [EK35S-Palm] (Ac-IEELSKKIEELSKKIEELSKKIEELSKKIEELSKK[βAla]K(Palmitoyl)-NH2) |  |  | effect on the 6-HB complex peak (SE-HPLC) [3]: decreased significantly; effect on the 6-HB band (N-PAGE) [4]: gradually became significantly lighter; fold more potent than the parent EK35S ([1]; cell–cell fusion and pseudovirus inhibition (Table 2 and Figure 3)): over 200 fold; half-life [5]: 217 min
Ac-IEELSKKIEELSKKIEELSKKIEELSKKIEELSKK-NH2 [EK35S] | 5.98 ± 1.23 | 2.42 ± 0.18 | effect on the 6-HB complex peak (SE-HPLC) [3]: does not affect 6-HB peak; effect on the 6-HB band (N-PAGE) [4]: no obvious change; half-life (in vitro): 133 min
CC[C@H](C)[C@H](NC(C)=O)C(=O)N[C@@H](CCC(=O)O)C(=O)N[C@@H](CCC(=O)O)C(=O)N[C@@H](CC(C)C)C(=O)N[C@@H](CO)C(=O)N[C@@H](CCCCN)C(=O)N[C@@H](CCCCN)C(=O)N[C@H](C(=O)N[C@@H](CCC(=O)O)C(=O)N[C@@H](CCC(=O)O)C(=O)N[C@@H](CC(C)C)C(=O)N[C@@H](CO)C(=O)N[C@@H](CCCCN)C(=O)N[C@@H](CCCCN)C(=O)N[C@H](C(=O)N[C@@H](CCC(=O)O)C(=O)N[C@@H](CCC(=O)O)C(=O)N[C@@H](CC(C)C)C(=O)N[C@@H](CO)C(=O)N[C@@H](CCCCN)C(=O)N[C@@H](CCCCN)C(=O)N[C@H](C(=O)N[C@@H](CCC(=O)O)C(=O)N[C@@H](CCC(=O)O)C(=O)N[C@@H](CC(C)C)C(=O)N[C@@H](CO)C(=O)N[C@@H](CCCCN)C(=O)N[C@@H](CCCCN)C(=O)N[C@H](C(=O)N[C@@H](CCC(=O)O)C(=O)N[C@@H](CCC(=O)O)C(=O)N[C@@H](CC(C)C)C(=O)N[C@@H](CO)C(=O)N[C@@H](CCCCN)C(=O)N[C@@H](CCCCN)C(=O)NCCC(=O)N[C@@H](CSCC(=O)O[C@H]1CC[C@@]2(C)C(=CC[C@H]3[C@@H]4CC[C@H]([C@H](C)CCCC(C)C)[C@@]4(C)CC[C@@H]32)C1)C(N)=O)[C@@H](C)CC)[C@@H](C)CC)[C@@H](C)CC)[C@@H](C)CC [EK35S-Chol] (Ac-IEELSKKIEELSKKIEELSKKIEELSKKIEELSKK[βAla]C(X1)-NH2) | > 100 | 85.7 ± 2.02 | 
